Results published in BindingDB's records for doi:10.1021/jm950372w (Rotta Research Laboratorium, 1996).
Counter-ions that a name gives are not always drawn.

Columns and labels:
[1] = target: Gastrin/cholecystokinin type B receptor (Cavia porcellus); experiment: Inhibition of binding of [3H]N-Me-N-Leu-CCK-8 to cholecystokinin type B receptor in guinea pig brain cortex
[2] = target: Gastrin/cholecystokinin type B receptor (Oryctolagus cuniculus); experiment: In vitro inhibition of gastrin-induced [Ca2+] cytosolic elevation in isolated rabbit parietal cells

Row | IC50 [1] [nM] | IC50 [2] [nM] | Structure (SMILES)
1 | 727 | 118 | O=C(O)CC[C@H](NC(=O)CCC(NC(=O)c1cc(Cl)cc(Cl)c1)C(=O)N1CCC2(CCCC2)CC1)C(=O)Nc1ccc2c(c1)CCC2 (stereo partly drawn) [(S)-4-[5-(8-Aza-spiro[4.5]dec-8-yl)-4-(3,5-dichloro-benzoylamino)-5-oxo-pentanoylamino]-4-(indan-5-ylcarbamoyl)-butyric acid]
2 | 20 | 7 | O=C(O)CC[C@H](NC(=O)CCC(NC(=O)c1cc(Cl)cc(Cl)c1)C(=O)N1CCC2(CCCC2)CC1)C(=O)Nc1cccc2ccccc12 (stereo partly drawn) [(S)-4-[5-(8-Aza-spiro[4.5]dec-8-yl)-4-(3,5-dichloro-benzoylamino)-5-oxo-pentanoylamino]-4-(naphthalen-1-ylcarbamoyl)-butyric acid]
3 | 136 | 76 | O=C(O)CC[C@H](NC(=O)CCC(NC(=O)c1cc(Cl)cc(Cl)c1)C(=O)N1CCC2(CCCC2)CC1)C(=O)Nc1cccc2ncccc12 (stereo partly drawn) [(S)-4-[5-(8-Aza-spiro[4.5]dec-8-yl)-4-(3,5-dichloro-benzoylamino)-5-oxo-pentanoylamino]-4-(quinolin-5-ylcarbamoyl)-butyric acid; hydrochloride]
4 | 108 | 54 | O=C(O)CC[C@H](NC(=O)CCC(NC(=O)c1cc(Cl)cc(Cl)c1)C(=O)N1CCC2(CCCC2)CC1)C(=O)Nc1cccc2cccnc12 (stereo partly drawn) [(S)-4-[5-(8-Aza-spiro[4.5]dec-8-yl)-4-(3,5-dichloro-benzoylamino)-5-oxo-pentanoylamino]-4-(quinolin-8-ylcarbamoyl)-butyric acid; hydrochloride]
5 | 135 | 48 | CCCCCN(CCCCC)C(=O)[C@H](CCC(=O)O)NC(=O)CCC(NC(=O)c1cc(Cl)cc(Cl)c1)C(=O)N1CCC2(CCCC2)CC1 (stereo partly drawn) [(S)-4-[5-(8-Aza-spiro[4.5]dec-8-yl)-4-(3,5-dichloro-benzoylamino)-5-oxo-pentanoylamino]-4-dipentylcarbamoyl-butyric acid]
6 | 299 | 119 | CCCN(CCC)C(=O)[C@H](CCC(=O)O)NC(=O)CCC(NC(=O)c1cc(Cl)cc(Cl)c1)C(=O)N1CCC2(CCCC2)CC1 (stereo partly drawn) [(S)-4-[5-(8-Aza-spiro[4.5]dec-8-yl)-4-(3,5-dichloro-benzoylamino)-5-oxo-pentanoylamino]-4-dipropylcarbamoyl-butyric acid]
7 | 140 | 49 | O=C(O)CC[C@H](NC(=O)CCC(NC(=O)c1cc(Cl)cc(Cl)c1)C(=O)N1CCC2(CCCC2)CC1)C(=O)N1CCc2ccccc2C1 (stereo partly drawn) [(S)-4-[5-(8-Aza-spiro[4.5]dec-8-yl)-4-(3,5-dichloro-benzoylamino)-5-oxo-pentanoylamino]-5-(3,4-dihydro-1H-isoquinolin-2-yl)-5-oxo-pentanoic acid]
8 | 185 | 28 | O=C(O)CC[C@H](NC(=O)CCC(NC(=O)c1cc(Cl)cc(Cl)c1)C(=O)N1CCC2(CCCC2)CC1)C(=O)N1CCC2CCCCC2C1 (stereo partly drawn) [(S)-4-[5-(8-Aza-spiro[4.5]dec-8-yl)-4-(3,5-dichloro-benzoylamino)-5-oxo-pentanoylamino]-5-(octahydro-isoquinolin-2-yl)-5-oxo-pentanoic acid]
9 | 141 | 37 | O=C(O)CC[C@H](NC(=O)CCC(NC(=O)c1cc(Cl)cc(Cl)c1)C(=O)N1CCC2(CCCC2)CC1)C(=O)N1CCC2(CCCC2)CC1 (stereo partly drawn) [(S)-5-(8-Aza-spiro[4.5]dec-8-yl)-4-[5-(8-aza-spiro[4.5]dec-8-yl)-4-(3,5-dichloro-benzoylamino)-5-oxo-pentanoylamino]-5-oxo-pentanoic acid]
10 | 1020 | 1040 | O=C(O)CNC(=O)CCC(NC(=O)c1cc(Cl)cc(Cl)c1)C(=O)N1CCC2(CCCC2)CC1 (centres undefined) [[5-(8-Aza-spiro[4.5]dec-8-yl)-4-(3,5-dichloro-benzoylamino)-5-oxo-pentanoylamino]-acetic acid]
11 | 390 | 80 | O=C(CCC(NC(=O)c1cc(Cl)cc(Cl)c1)C(=O)N1CCC2(CCCC2)CC1)NC(C(=O)O)c1ccccc1 (centres undefined) [[5-(8-Aza-spiro[4.5]dec-8-yl)-4-(3,5-dichloro-benzoylamino)-5-oxo-pentanoylamino]-phenyl-acetic acid]
12 | 1570 | 2810 | CN(CC(=O)O)C(=O)CCC(NC(=O)c1cc(Cl)cc(Cl)c1)C(=O)N1CCC2(CCCC2)CC1 (centres undefined) [{[5-(8-Aza-spiro[4.5]dec-8-yl)-4-(3,5-dichloro-benzoylamino)-5-oxo-pentanoyl]-methyl-amino}-acetic acid]
